In series [1] the target is Beta-2 adrenergic receptor (Homo sapiens, UniProt P07550). As to the kind of experiment: DRUGMATRIX: Adrenergic beta2 radioligand binding (ligand: [3H] CGP-12177). Type of series: cell membranes, CHO, Membrane. As to conditions: cho; Not Active = under 50% inhibition at 10 µM.
Series [2] in a line: DRUGMATRIX: Sigma2 radioligand binding (ligand: [3H] Ifenprodil). Type of series: cell membranes, Rattus norvegicus, Wistar, Brain, Membrane. As to conditions: Not Active = under 50% inhibition at 10 µM.
For the next series, the target named is Melanocortin receptor 3 (Homo sapiens, UniProt P41968). Type of series: cell membranes, HEK293, Membrane. As to conditions: hek293. Also: in other assays of this panel Not Active means under 50% inhibition at 10 µM.
In series [3] the target is T1, Nitric oxide synthase, inducible (Mus musculus, UniProt P29477).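 Also: inhibition of iNOS enzyme activity measured with L-arginine as substrate; in other assays of this panel Not Active means under 50% inhibition at 10 µM.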
T1 sequence (P29477 whole entry): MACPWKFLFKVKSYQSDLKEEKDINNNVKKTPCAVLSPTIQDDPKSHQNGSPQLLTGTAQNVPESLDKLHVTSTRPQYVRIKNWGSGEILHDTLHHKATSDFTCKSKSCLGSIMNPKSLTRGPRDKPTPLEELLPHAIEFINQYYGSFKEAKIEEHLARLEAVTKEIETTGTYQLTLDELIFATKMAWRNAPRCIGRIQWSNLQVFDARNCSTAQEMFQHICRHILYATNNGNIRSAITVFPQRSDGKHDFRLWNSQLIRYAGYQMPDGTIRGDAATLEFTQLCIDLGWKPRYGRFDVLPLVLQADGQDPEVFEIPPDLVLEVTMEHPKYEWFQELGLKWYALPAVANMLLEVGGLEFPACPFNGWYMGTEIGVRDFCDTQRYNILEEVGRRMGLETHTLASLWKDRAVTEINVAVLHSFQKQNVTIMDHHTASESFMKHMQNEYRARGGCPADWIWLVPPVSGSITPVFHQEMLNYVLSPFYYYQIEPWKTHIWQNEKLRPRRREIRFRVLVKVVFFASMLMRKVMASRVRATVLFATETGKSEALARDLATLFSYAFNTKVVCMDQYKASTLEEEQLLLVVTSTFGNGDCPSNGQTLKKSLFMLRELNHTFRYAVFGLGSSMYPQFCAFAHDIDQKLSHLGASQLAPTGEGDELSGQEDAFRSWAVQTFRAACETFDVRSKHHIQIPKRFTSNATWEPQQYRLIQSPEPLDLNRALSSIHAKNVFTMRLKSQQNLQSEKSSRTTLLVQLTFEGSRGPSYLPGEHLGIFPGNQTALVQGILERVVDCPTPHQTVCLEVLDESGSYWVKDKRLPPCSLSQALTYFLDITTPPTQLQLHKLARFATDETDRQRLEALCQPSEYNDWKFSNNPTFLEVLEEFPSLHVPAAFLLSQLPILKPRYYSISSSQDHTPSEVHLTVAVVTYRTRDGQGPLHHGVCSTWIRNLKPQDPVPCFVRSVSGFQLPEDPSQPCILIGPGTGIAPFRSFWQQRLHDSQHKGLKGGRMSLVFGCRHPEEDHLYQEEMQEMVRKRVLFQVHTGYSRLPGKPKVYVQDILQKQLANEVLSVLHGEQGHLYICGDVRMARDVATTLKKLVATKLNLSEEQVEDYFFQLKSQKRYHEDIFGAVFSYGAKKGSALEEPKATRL
Also noted: species or system Escherichia coli.

In series [4] the target is Delta-type opioid receptor (Homo sapiens, UniProt P41143). Type of series: cell membranes, HEK293, Membrane. Also: in other assays of this panel Not Active means under 50% inhibition at 10 µM.
The target of a further series is T2, Interstitial collagenase (Homo sapiens, UniProt P03956).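 Also: MMP-1 enzyme inhibition assay using a peptide substrate; in other assays of this panel Not Active means under 50% inhibition at 10 µM.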
T2 sequence (P03956 whole entry): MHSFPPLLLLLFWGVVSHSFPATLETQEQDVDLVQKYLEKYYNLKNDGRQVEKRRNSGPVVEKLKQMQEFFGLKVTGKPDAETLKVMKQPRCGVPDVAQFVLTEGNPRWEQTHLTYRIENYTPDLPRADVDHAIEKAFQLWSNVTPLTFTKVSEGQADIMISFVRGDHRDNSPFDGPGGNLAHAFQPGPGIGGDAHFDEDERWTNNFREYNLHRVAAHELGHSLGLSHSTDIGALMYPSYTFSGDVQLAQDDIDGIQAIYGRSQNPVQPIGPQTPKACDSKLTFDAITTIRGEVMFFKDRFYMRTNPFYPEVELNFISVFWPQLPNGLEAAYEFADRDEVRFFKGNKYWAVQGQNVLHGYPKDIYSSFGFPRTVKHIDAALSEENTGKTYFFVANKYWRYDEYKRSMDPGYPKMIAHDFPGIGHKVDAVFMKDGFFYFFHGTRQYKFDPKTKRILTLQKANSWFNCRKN
Description: biochemical. In kind it is tissue-based, Rheumatoid synovial fibroblasts.

The target in a further series is Cytochrome P450 2C19 (Homo sapiens, UniProt P33261). Particulars: bti-tn-5b1-4. Also: in other assays of this panel Not Active means under 50% inhibition at 10 µM.
Sequence of Cytochrome P450 2C19 (P33261 whole entry): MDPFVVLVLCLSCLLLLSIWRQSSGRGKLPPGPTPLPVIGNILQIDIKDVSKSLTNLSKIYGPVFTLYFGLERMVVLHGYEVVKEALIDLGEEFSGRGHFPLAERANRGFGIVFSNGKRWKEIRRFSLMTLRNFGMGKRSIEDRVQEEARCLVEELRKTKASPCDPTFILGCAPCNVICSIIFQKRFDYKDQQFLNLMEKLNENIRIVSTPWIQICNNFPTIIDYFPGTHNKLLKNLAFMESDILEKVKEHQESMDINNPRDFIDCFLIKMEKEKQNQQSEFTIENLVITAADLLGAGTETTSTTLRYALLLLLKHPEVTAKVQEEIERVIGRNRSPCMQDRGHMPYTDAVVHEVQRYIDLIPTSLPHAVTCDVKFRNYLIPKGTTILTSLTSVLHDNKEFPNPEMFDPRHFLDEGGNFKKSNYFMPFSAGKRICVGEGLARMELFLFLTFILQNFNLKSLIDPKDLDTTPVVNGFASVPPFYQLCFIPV

Sequence of Melanocortin receptor 3 (P41968 whole entry): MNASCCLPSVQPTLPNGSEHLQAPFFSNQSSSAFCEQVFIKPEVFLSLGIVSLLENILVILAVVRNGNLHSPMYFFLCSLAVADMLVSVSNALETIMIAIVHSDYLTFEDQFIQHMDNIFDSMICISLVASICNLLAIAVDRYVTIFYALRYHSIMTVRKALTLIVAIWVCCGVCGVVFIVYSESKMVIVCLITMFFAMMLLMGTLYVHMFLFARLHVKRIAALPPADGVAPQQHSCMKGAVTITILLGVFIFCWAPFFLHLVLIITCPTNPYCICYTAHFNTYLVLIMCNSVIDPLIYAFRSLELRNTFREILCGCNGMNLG
Sequence of Delta-type opioid receptor (P41143 whole entry): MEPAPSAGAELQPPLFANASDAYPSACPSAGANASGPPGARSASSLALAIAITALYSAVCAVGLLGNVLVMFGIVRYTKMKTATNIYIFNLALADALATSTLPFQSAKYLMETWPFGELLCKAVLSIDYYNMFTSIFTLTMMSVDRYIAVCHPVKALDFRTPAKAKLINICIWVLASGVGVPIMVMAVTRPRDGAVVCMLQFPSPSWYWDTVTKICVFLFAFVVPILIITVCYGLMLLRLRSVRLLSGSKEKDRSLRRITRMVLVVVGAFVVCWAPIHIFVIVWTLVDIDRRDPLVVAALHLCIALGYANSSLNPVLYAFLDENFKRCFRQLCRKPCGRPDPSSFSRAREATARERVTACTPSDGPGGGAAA

`C[N+](C)(C)CCOC(N)=O.[Cl-]` [CARBACHOL]: the half-maximal inhibitory concentration (IC50) entry (in series [1]; in series [2]; on Melanocortin receptor 3; in series [3]; in series [4] (hek293); against Interstitial collagenase) was “Not Active” throughout. Besides, the IC50 result against Cytochrome P450 2C19 is recorded as “Not Active”. Further, the Ki entry (in series [2]; on Cytochrome P450 2C19) was “Not Active” each time.
For `C[C@]12CC[C@@H](O)C[C@@H]1CC[C@@H]1[C@@H]2CC[C@]2(C)C(=O)CC[C@@H]12` [ANDROSTERONE], the concentration for half-maximal inhibition (IC50) result (in series [1]; in series [2]; on Melanocortin receptor 3; in series [3]; in series [4] (hek293); against Interstitial collagenase) was “Not Active” each time. The IC50 result against Cytochrome P450 2C19 is “Not Active”. Moreover, the Ki entry (in series [2]; at Cytochrome P450 2C19) was “Not Active” throughout.
On to `C[C@H](C(=O)O)c1ccc2oc(-c3ccc(F)cc3)nc2c1` [FLUNOXAPROFEN], for which the IC50 result (in series [1]; in series [2]; on Melanocortin receptor 3; in series [3]; in series [4] (hek293); at Interstitial collagenase) was “Not Active” throughout. The 50% inhibitory concentration (IC50) entry on Cytochrome P450 2C19 is reported as “Not Active”. Besides, the Ki entry (in series [2]; on Cytochrome P450 2C19) was “Not Active” throughout.
On to COPPER(II) OXIDE, for which the 50% inhibitory concentration (IC50) result (in series [1]; in series [2]; against Melanocortin receptor 3; in series [3]; in series [4] (hek293); against Interstitial collagenase) was “Not Active” throughout. Also, the IC50 result against Cytochrome P450 2C19 is on record as “Not Active”. The Ki result (in series [1]; in series [2]; at Melanocortin receptor 3; in series [3]; in series [4] (hek293); on Interstitial collagenase) was “Not Active” throughout. Moreover, at Cytochrome P450 2C19, the Ki result is “Not Active”.
Take `NC(=O)CN1CCCC1=O`: the IC50 result (in series [1]; in series [2]; against Melanocortin receptor 3; in series [3]; in series [4] (hek293); against Interstitial collagenase) was “Not Active” in each case. In addition, the IC50 result against Cytochrome P450 2C19 is “Not Active”. The inhibitory constant (Ki) result (in series [2]; on Cytochrome P450 2C19) was “Not Active” each time.
Turning to `O=C1c2ccccc2C(=O)C1c1ccccc1` [PHENINDIONE], the IC50 result (in series [1]; in series [2]; at Melanocortin receptor 3; in series [3]; in series [4] (hek293); against Interstitial collagenase) was “Not Active” each time. For the same compound, on Cytochrome P450 2C19, the IC50 entry is recorded as “Not Active”. Besides, the Ki result (in series [2]; at Cytochrome P450 2C19) was “Not Active” each time.
Turning to `CCN1C[C@]2(COC)[C@H](O)C[C@H](OC)[C@@]34[C@@H]5C[C@@]6(O)[C@H](OC(=O)c7ccccc7)[C@@H]5[C@@](OC(C)=O)([C@@H]([C@H](OC)[C@H]23)[C@@H]14)[C@@H](O)[C@@H]6OC` [ACONITINE], the IC50 result (in series [1]; in series [2]; on Melanocortin receptor 3; in series [3]; in series [4] (hek293); against Interstitial collagenase) was “Not Active” each time. Further, the IC50 entry against Cytochrome P450 2C19 is listed as “Not Active”. In addition, the Ki entry (in series [2]; on Cytochrome P450 2C19) was “Not Active” in each case.
In the case of `COc1ccccc1OCCNCC(O)COc1cccc2[nH]c3ccccc3c12` (stereo unspecified) [CARVEDILOL], the IC50 entry (in series [2]; at Melanocortin receptor 3; in series [3]; in series [4] (hek293); at Interstitial collagenase; on Cytochrome P450 2C19) was “Not Active” in each case. The Ki result (in series [2]; on Cytochrome P450 2C19) was “Not Active” in each case.
Turning to `COc1cc([C@@H]2c3cc4c(cc3[C@H](O)[C@H]3COC(=O)[C@H]23)OCO4)cc(OC)c1OC` [PODOFILOX], the IC50 entry (in series [1]; in series [2]; on Melanocortin receptor 3; in series [3]; in series [4] (hek293); on Interstitial collagenase) was “Not Active” each time. Besides, the Ki result in series [2] was “Not Active”.
Turning to `NS(=O)(=O)c1cc(C(=O)O)c(NCc2ccco2)cc1Cl` [FUROSEMIDE], the concentration for half-maximal inhibition (IC50) result (in series [1]; in series [2]; against Melanocortin receptor 3; in series [3]; in series [4] (hek293); at Interstitial collagenase) was “Not Active” throughout. For the same compound, the Ki result in series [2] is recorded as “Not Active”.
With `C[C@H]1C[C@H]2[C@@H]3CCC4=CC(=O)C=C[C@]4(C)[C@@]3(F)[C@@H](O)C[C@]2(C)[C@@]1(O)C(=O)CO` [BETAMETHASONE], the 50% inhibitory concentration (IC50) entry (in series [1]; in series [2]; against Melanocortin receptor 3; in series [3]; in series [4] (hek293); against Interstitial collagenase) was “Not Active” in each case. Moreover, in series [2], the inhibition constant Ki result was “Not Active”.
With `CC(C)NCC(O)COc1ccc(CC(N)=O)cc1` (stereo unspecified) [ATENOLOL], the IC50 result (in series [2]; at Melanocortin receptor 3; in series [3]; in series [4] (hek293); against Interstitial collagenase) was “Not Active” throughout. The inhibition constant (Ki) entry in series [2] is “Not Active”.
As for `CCN(CCO)CCCC(C)Nc1ccnc2cc(Cl)ccc12` (stereo unspecified) [HYDROXYCHLOROQUINE], the IC50 entry (in series [1]; in series [2]; against Melanocortin receptor 3; in series [3]; in series [4] (hek293); at Interstitial collagenase) was “Not Active” each time. For the same compound, the Ki entry in series [2] is “Not Active”.
For `CC1(COc2ccc(CC3SC(=O)NC3=O)cc2)CCCCC1` (stereo unspecified) [CIGLITAZONE], the IC50 result was “Not Active” in series [1]; “Not Active” in series [2]; “Not Active” against Melanocortin receptor 3; “Not Active” in series [3]; 26.9 µM in series [4] (read-out: IC50); “Not Active” against Interstitial collagenase. Further, the Ki entry is “Not Active” in series [2] and 9.48 µM in series [4] (read-out: Ki).
With `CNC[C@H](O)c1ccc(O)c(O)c1` [EPINEPHRINE], the IC50 entry (in series [2]; against Melanocortin receptor 3; in series [3]; in series [4] (hek293); against Interstitial collagenase; at Cytochrome P450 2C19) was “Not Active” each time. For the same compound, the Ki result (in series [2]; on Cytochrome P450 2C19) was “Not Active” throughout.
With `C=CCN1CC[C@]23c4c5ccc(O)c4O[C@H]2/C(=N/N=C2\CC[C@@]4(O)[C@H]6Cc7ccc(O)c8c7[C@@]4(CCN6CC=C)[C@H]2O8)CC[C@@]3(O)[C@H]1C5` [NALOXONAZINE], the IC50 result (in series [1]; in series [2]; against Melanocortin receptor 3; in series [3]; against Interstitial collagenase; on Cytochrome P450 2C19) was “Not Active” each time. The Ki entry (in series [2]; on Cytochrome P450 2C19) was “Not Active” throughout.
In the case of `O=C(O)CNCP(=O)(O)O` [GLYPHOSATE], the IC50 result (in series [1]; in series [2]; against Melanocortin receptor 3; in series [3]; in series [4] (hek293); against Interstitial collagenase) was “Not Active” each time. In series [2], the Ki entry is given as “Not Active”.

Values taken from ChEMBL document CHEMBL1909046, “DrugMatrix in vitro pharmacology data”.
